According to patent US6355799B1, “Substituted benzene compounds, process for their preparation, and herbicidal and defoliant compositions containing them” (ISK Americas Incorporated, priority 1997, dated 2002):

How the values were obtained:
Format in all cases: in vivo
[1] = test system: lambsquarters (Chenopodium album, CHEAL); assay: Post-emerge test, greenhouse herbicide activity screening; conditions: phytotoxicity rating 0-100 (0 no damage, 100 complete death), 14 days after application
Outline: (§1)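 Plants grown in 10 cm pots of sandy loam mix received acetone-dissolved compounds through a moving flat-fan nozzle. Doses ranged from 15 to 1000 g ai/ha. Pre-emerge pots were seeded one day earlier, post-emerge pots 8–21 days earlier. Fourteen days on, each pot was graded 0–100 for damage.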

[2] = test system: sicklepod (Cassia obtusifolia, CASOB); assay: as above; conditions: phytotoxicity rating 0-100 (0 no damage, 100 complete death), 14 days after application
Outline: as §1

[3] = test system: ivyleaf morningglory (Ipomoea hederacea, IPOHE); assay: as above; conditions: phytotoxicity rating 0-100 (0 no damage, 100 complete death), 14 days after application
Outline: as §1

[4] = test system: johnsongrass (Sorghum halepense, SORHA); assay: as above; conditions: phytotoxicity rating 0-100 (0 no damage, 100 complete death), 14 days after application
Outline: as §1

[5] = test system: redroot pigweed (Amaranthus retroflexus, AMARE); assay: as above; conditions: phytotoxicity rating 0-100 (0 no damage, 100 complete death), 14 days after application
Outline: as §1

[6] = test system: barnyardgrass (Echinochloa crus-galli, ECHCG); assay: as above; conditions: phytotoxicity rating 0-100 (0 no damage, 100 complete death), 14 days after application
Outline: as §1

[7] = test system: velvetleaf (Abutilon theophrasti, ABUTH); assay: as above; conditions: phytotoxicity rating 0-100 (0 no damage, 100 complete death), 14 days after application
Outline: as §1

[8] = test system: large crabgrass (Digitaria sanguinalis, DIGSA); assay: as above; conditions: phytotoxicity rating 0-100 (0 no damage, 100 complete death), 14 days after application
Outline: as §1

[9] = test system: green foxtail (Setaria viridis, SETVI); assay: as above; conditions: phytotoxicity rating 0-100 (0 no damage, 100 complete death), 14 days after application
Outline: as §1

[10] = test system: redroot pigweed (Amaranthus retroflexus, AMARE); assay: Pre-emerge test, greenhouse herbicide activity screening; conditions: pre-emerge, rated 14 days after application, 0 = no damage, 100 = complete death
Outline: (§2)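 Rating: 0–100 visual injury, 14 DAA. Application: acetone, 187 l/ha, 15–1000 g ai/ha, flat-fan track sprayer with nozzle 40–45 cm above soil or canopy. Post-emerge runs used 0.25% v/v surfactant on 2–3 leaf plants.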

[11] = test system: upland rice (Oryza sp., var. Tebonnet, RICE); assay: Post-emerge test, crop safety; conditions: phytotoxicity rating 0-100 (0 no damage, 100 complete death), 14 days after application
Outline: (§3)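 Visual ratings on a 0-100 scale (0 no damage, 100 all plants dead) were taken at 14 days after treatment. Rates of 15-1000 g ai/ha in acetone, 187 l/ha, were sprayed onto soil one day after planting (pre-emerge) or onto 2-3 leaf plants with 0.25% v/v surfactant (post-emerge).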

[12] = test system: field corn (Zea mays L., var. Dekalb 535, CORN); assay: Post-emerge test, crop safety; conditions: phytotoxicity rating 0-100 (0 no damage, 100 complete death), 14 days after application
Outline: as §3

[13] = test system: upland rice (Oryza sp., var. Tebonnet, RICE); assay: Pre-emerge test, crop safety; conditions: pre-emerge, rated 14 days after application, 0 = no damage, 100 = complete death
Outline: as §2

[14] = test system: field corn (Zea mays L., var. Dekalb 535, CORN); assay: Pre-emerge test, crop safety; conditions: pre-emerge, rated 14 days after application, 0 = no damage, 100 = complete death
Outline: as §2

[15] = test system: lambsquarters (Chenopodium album, CHEAL); assay: Pre-emerge test, greenhouse herbicide activity screening; conditions: pre-emerge, rated 14 days after application, 0 = no damage, 100 = complete death
Outline: as §3

[16] = test system: sicklepod (Cassia obtusifolia, CASOB); assay: as above; conditions: pre-emerge, rated 14 days after application, 0 = no damage, 100 = complete death
Outline: as §3

[17] = test system: ivyleaf morningglory (Ipomoea hederacea, IPOHE); assay: as above; conditions: pre-emerge, rated 14 days after application, 0 = no damage, 100 = complete death
Outline: as §3

[18] = test system: johnsongrass (Sorghum halepense, SORHA); assay: as above; conditions: pre-emerge, rated 14 days after application, 0 = no damage, 100 = complete death
Outline: as §3

[19] = test system: barnyardgrass (Echinochloa crus-galli, ECHCG); assay: as above; conditions: pre-emerge, rated 14 days after application, 0 = no damage, 100 = complete death
Outline: as §3

[20] = test system: velvetleaf (Abutilon theophrasti, ABUTH); assay: as above; conditions: pre-emerge, rated 14 days after application, 0 = no damage, 100 = complete death
Outline: as §3

[21] = test system: large crabgrass (Digitaria sanguinalis, DIGSA); assay: as above; conditions: pre-emerge, rated 14 days after application, 0 = no damage, 100 = complete death
Outline: as §3

[22] = test system: green foxtail (Setaria viridis, SETVI); assay: as above; conditions: pre-emerge, rated 14 days after application, 0 = no damage, 100 = complete death
Outline: as §3

## COc1c(Cl)cc(F)c(-n2c(=O)cc(C(F)(F)F)n(C)c2=O)c1N(C(=O)C1CC1)C(=O)C1CC1 [2-18]
[1]; 63 g ai/ha
  Post-emerge Herbicidal Activity CHEAL: 0
[1]; 250 g ai/ha
  Post-emerge Herbicidal Activity CHEAL: 50
[2]; 63 g ai/ha
  Post-emerge Herbicidal Activity CASOB: 0
[2]; 250 g ai/ha
  Post-emerge Herbicidal Activity CASOB: 10
[3]; 63 g ai/ha
  Post-emerge Herbicidal Activity IPOHE: 0
[3]; 250 g ai/ha
  Post-emerge Herbicidal Activity IPOHE: 30
[4]; 63 g ai/ha
  Post-emerge Herbicidal Activity SORHA: 0
[4]; 250 g ai/ha
  Post-emerge Herbicidal Activity SORHA: 0
[5]; 63 g ai/ha
  Post-emerge Herbicidal Activity AMARE: 0
[5]; 250 g ai/ha
  Post-emerge Herbicidal Activity AMARE: 95
[6]; 63 g ai/ha
  Post-emerge Herbicidal Activity ECHCG: 0
[6]; 250 g ai/ha
  Post-emerge Herbicidal Activity ECHCG: 0
[7]; 63 g ai/ha
  Post-emerge Herbicidal Activity ABUTH: 0
[7]; 250 g ai/ha
  Post-emerge Herbicidal Activity ABUTH: 40
[8]; 63 g ai/ha
  Post-emerge Herbicidal Activity DIGSA: 0
[8]; 250 g ai/ha
  Post-emerge Herbicidal Activity DIGSA: 0
[9]; 63 g ai/ha
  Post-emerge Herbicidal Activity SETVI: 0
[9]; 250 g ai/ha
  Post-emerge Herbicidal Activity SETVI: 0
[10]; 63 g ai/ha
  Pre-emerge Herbicidal Activity AMARE (phytotoxicity rating, scale 0-100): 40
[10]; 250 g ai/ha
  Pre-emerge Herbicidal Activity AMARE (phytotoxicity rating, scale 0-100): 100
[11]; 63 g ai/ha
  Post-emerge Herbicidal Activity RICE (crop damage): 0
[11]; 250 g ai/ha
  Post-emerge Herbicidal Activity RICE (crop damage): 0
[12]; 63 g ai/ha
  Post-emerge Herbicidal Activity CORN (crop damage): 0
[12]; 250 g ai/ha
  Post-emerge Herbicidal Activity CORN (crop damage): 0
[13]; 63 g ai/ha
  Pre-emerge crop damage RICE (phytotoxicity rating, scale 0-100): 0
[13]; 250 g ai/ha
  Pre-emerge crop damage RICE (phytotoxicity rating, scale 0-100): 20
[14]; 63 g ai/ha
  Pre-emerge crop damage CORN (phytotoxicity rating, scale 0-100): 0
[14]; 250 g ai/ha
  Pre-emerge crop damage CORN (phytotoxicity rating, scale 0-100): 0
[15]; 63 g ai/ha
  Pre-emerge Herbicidal Activity CHEAL (phytotoxicity rating, scale 0-100): 10
[15]; 250 g ai/ha
  Pre-emerge Herbicidal Activity CHEAL (phytotoxicity rating, scale 0-100): 90
[16]; 63 g ai/ha
  Pre-emerge Herbicidal Activity CASOB (phytotoxicity rating, scale 0-100): 0
[16]; 250 g ai/ha
  Pre-emerge Herbicidal Activity CASOB (phytotoxicity rating, scale 0-100): 40
[17]; 63 g ai/ha
  Pre-emerge Herbicidal Activity IPOHE (phytotoxicity rating, scale 0-100): 0
[17]; 250 g ai/ha
  Pre-emerge Herbicidal Activity IPOHE (phytotoxicity rating, scale 0-100): 40
[18]; 63 g ai/ha
  Pre-emerge Herbicidal Activity SORHA (phytotoxicity rating, scale 0-100): 0
[18]; 250 g ai/ha
  Pre-emerge Herbicidal Activity SORHA (phytotoxicity rating, scale 0-100): 0
[19]; 63 g ai/ha
  Pre-emerge Herbicidal Activity ECHCG (phytotoxicity rating, scale 0-100): 0
[19]; 250 g ai/ha
  Pre-emerge Herbicidal Activity ECHCG (phytotoxicity rating, scale 0-100): 0
[20]; 63 g ai/ha
  Pre-emerge Herbicidal Activity ABUTH (phytotoxicity rating, scale 0-100): 0
[20]; 250 g ai/ha
  Pre-emerge Herbicidal Activity ABUTH (phytotoxicity rating, scale 0-100): 100
[21]; 63 g ai/ha
  Pre-emerge Herbicidal Activity DIGSA (phytotoxicity rating, scale 0-100): 0
[21]; 250 g ai/ha
  Pre-emerge Herbicidal Activity DIGSA (phytotoxicity rating, scale 0-100): 0
[22]; 63 g ai/ha
  Pre-emerge Herbicidal Activity SETVI (phytotoxicity rating, scale 0-100): 0
[22]; 250 g ai/ha
  Pre-emerge Herbicidal Activity SETVI (phytotoxicity rating, scale 0-100): 80
